Values quoted from earlier work in the CATMoS acute toxicity set (Mansouri et al. 2021).

Assay: rat acute oral toxicity
Details: in vivo
Description: […]The data set underlying the modeling effort for this project was initially compiled by NICEATM and U.S. EPA’s CCTE. Briefly, LD50 data were collected from rat acute oral systemic toxicity tests, including limit tests, ranges/confidence intervals, and discrete LD50 values. The full data set included 21,200 LD50 entries for 15,688 substances. […] Data were reviewed to ensure that LD50 values with obvious errors in the extracted data such as unit conversion errors (e.g., comma and decimal separator misplacements) were either fixed or removed. After this review, 16,209 LD50 values remained. Many of the chemicals represented had multiple LD50 entries, requiring that a single representative value per Chemical Abstracts Service Registry Number (CASRN) identifier be defined to facilitate modeling efforts. Based on ATWG feedback and to define the representative LD50 as a protective value while accounting for the distribution across multiple LD50s, the median of the lowest quartile was computed using only discrete LD50 values (omitting limit test data and range and confidence interval data). A detailed summary of the data compilation is available online on the NICEATM webpage dedicated to the collaborative modeling project (NTP 2020).
[…][…] For categorical designations, limit test and range/confidence interval LD50 data were integrated wherever possible. As such, the number of chemicals with end point values/calls varies across the modeling end points (Table 3) based on whether chemicals had representative LD50 values and/or other data. If a chemical had both, the representative value was used to determine categorical calls rather than limit test data. Some data were useable only for certain end points and categories depending on the thresholds. For example, ranges that spanned multiple hazard categories were considered only for the binary (very toxic/nontoxic) end points and omitted from rendering a determination for hazard category assignment.
[…]The final data set comprising 11,992 chemicals was split into training and evaluation sets […], respectively. This process was performed semirandomly by ordering chemicals based on the five end points (categorical and continuous LD50 values) and partitioning every fourth record into the evaluation set accordingly. This approach was taken to ensure an equivalent distribution of the LD50 values and the different hazard categories between the training and the evaluation sets without supervised sampling of the chemicals based on structures (Figure 1A). The sources of the chemical structures were also kept equivalent between the two sets, with chemical structures obtained from DSSTox, being the highest quality, representing over 75% of each set (Figure 1B).

| Compound | LD50 |
| --- | --- |
| CCS(=O)CCOP(=S)(OC)OC (configuration not stated) | 600 mg/kg |
| Oc1ccc(-c2ccc(O)cc2)cc1 | 4920 mg/kg |
| COc1ccc(C(=C(C#N)CCC(=O)O)c2ccc(OC)cc2)cc1 | 337 mg/kg |
| COCCOC(=O)CC#N | 4300 mg/kg |
| Cc1ccc(OCC(O)CNC(C)(C)C)c2oc(=O)ccc12 (configuration not stated) | 676 mg/kg |
| CC(=O)c1ccc2c(c1)N(CCCN1CCOCC1)c1ccccc1S2 | 2500 mg/kg |
| S=C1N=CC=NC(=S)SSSS1 | 8530 mg/kg |
| Cc1ccccc1-c1nnc(NN)s1 | 120 mg/kg |
| O=C(CCCN1CCN(c2ccccc2)CC1)c1ccc(F)cc1 | 550 mg/kg |
| CNC(=O)ON=C1CSCS1 | 13 mg/kg |
| CCOP(=S)(OCC)Oc1cc(Cl)c(I)cc1Cl | 140 mg/kg |
| COP(=S)(N=C1SCCS1)OC | 10 mg/kg |
| Cc1ccc(N)cc1[N+](=O)[O-] | 6860 mg/kg |
| S=C(Cl)Cl | 929 mg/kg |
| Cc1c(C(=O)O)nnn1-c1ccccc1 | 1500 mg/kg |
| CCN(CC)CCOCCOC(=O)C(CC)(CC)c1ccccc1 | 183 mg/kg |
| CC(=O)Oc1ccccc1C=CC(=O)O | 3150 mg/kg |
| NC1CCS(=O)(=O)C1 (configuration not stated) | 17900 mg/kg |
| CNC(=O)O/N=C(\C)C(C)S(C)(=O)=O (configuration not stated) | 458 mg/kg |
| CCOC(=O)C(C)(C)Oc1ccc(Cl)cc1 | 940 mg/kg |
| CN(C)C(=N)NC#N | 3840 mg/kg |
| CC(C)(OO)c1ccccc1 | 382 mg/kg |

| Compound | LD50 |
| --- | --- |
| Cc1ccc(CC(C)N)cc1 (configuration not stated) | 150 mg/kg |
| COc1c2ccoc2cc2oc(CO[C@@H]3O[C@H](CO)[C@@H](O)[C@H](O)[C@H]3O)cc(=O)c12 | 1470 mg/kg |
| CC(C)(Oc1ccc(Cl)cc1)C(=O)O | 897 mg/kg |
| O=NN1CCOC1 | 1500 mg/kg |
| CN(C)C1CC(c2ccccc2)c2ccccc21 (configuration not stated) | 176 mg/kg |
| O=C(OCc1ccccc1)c1sc(Cl)nc1C(F)(F)F | 5010 mg/kg |
| Cc1ccccc1-n1c(CF)nc2ccc(N)cc2c1=O | 249 mg/kg |
| CCNC(C)Cc1cccc(C(F)(F)F)c1 (configuration not stated) | 130 mg/kg |
| Clc1ccc2ocnc2c1 | 650 mg/kg |
| O=C(NO)Nc1ccc(Cl)c(Cl)c1 | 1850 mg/kg |
| CC1NC(=O)c2ccccc2O1 (configuration not stated) | 1020 mg/kg |
| Cc1ccccc1N=Nc1c(N)ccc2ccccc12 | 120 mg/kg |
| CC(=O)OC12CCC(C)=CCC13CCC2C(C)(C=CC=C(C)C(=O)O)OC3=O (configuration not stated) | 219 mg/kg |
| CC(=O)OC1(C)CC(C)C(=O)C(C(O)CC2CC(=O)NC(=O)C2)C1 (configuration not stated) | 0.158 mg/kg |
| ClCCOCCCl | 75 mg/kg |
| CN(C)CC/C=C1\c2ccccc2CSc2ccccc21 | 450 mg/kg |
| COc1c(OP(=S)(Oc2cnn(C)c(=O)c2OC)OC(C)C)cnn(C)c1=O | 100 mg/kg |
| CC(C)CCCCCc1ccc(O)cc1 | 2150 mg/kg |
| CC(C)C(NC(=O)COc1ccc(Cl)cc1Cl)C(=O)O (configuration not stated) | 750 mg/kg |
| COP(=S)(OC)SCSc1ccc(Cl)c(Cl)c1 | 220 mg/kg |
| C=CC#CC(C)(C)O | 600 mg/kg |
| COP(=O)(OC)O/C(=C\Cl)c1ccc(Cl)cc1Cl | 97.5 mg/kg |

| Compound | LD50 |
| --- | --- |
| COP(=O)(OC)OC(C)=CC(=O)OCc1ccccc1 | 56 mg/kg |
| CN(CCCl)c1ccc(C=CC2=[N+](C)c3ccccc3C2(C)C)cc1 | 2260 mg/kg |
| ClC(Cl)=C(c1ccc(Cl)cc1)c1ccc(Cl)cc1 | 880 mg/kg |
| CCOP(=S)(OCC)Oc1ccc([N+](=O)[O-])cc1Cl | 10 mg/kg |
| O=C(Cl)c1ccc(C(=O)Cl)cc1 | 2500 mg/kg |
| Cc1c(Cl)c(Cl)c(Cl)c2[nH]c(C(F)(F)F)nc12 | 6.49 mg/kg |
| CCN(CC)c1ccc(N)cc1 | 200 mg/kg |
| COC(=O)CC(SP(=O)(OC)OC)C(=O)OC (configuration not stated) | 103 mg/kg |
| Cc1cccc(C)c1NC(=O)C1(N(C)C)CCN(C2CCCCC2O)CC1 (configuration not stated) | 4.83 mg/kg |
| CCOC(=O)CC(=O)NP(=O)(OC)SC (configuration not stated) | 125 mg/kg |
| COP(=S)(OC)Oc1ccc(Sc2ccc(OP(=S)(OC)OC)c(C)c2)cc1C | 250 mg/kg |
| CCCC(=O)OC/C=C(\C)CCC=C(C)C | 10700 mg/kg |
| CNC(=O)Oc1ccc(Cl)c2c1OC(C)(C)C2 | 248 mg/kg |
| COc1ccc(CCC2=NCCc3cc(OC)c(OC)cc32)cc1OC | 900 mg/kg |
| CC1=C(C(C)C)CC=CC1 | 4270 mg/kg |
| CCOc1ccccc1N1CCN(CCC=Cc2ccc3[nH]c(=O)ccc3c2)CC1 | 500 mg/kg |
| C(=Nc1ccc(N=Cc2ccco2)cc1)c1ccco1 | 1220 mg/kg |
| CCOC(=O)c1c(N)sc2c1CCN(Cc1ccccc1)C2 | 1200 mg/kg |
| OCC(Br)CBr (configuration not stated) | 681 mg/kg |
| Oc1ccc(C(O)CCNCCCSc2ccccc2)cc1 (configuration not stated) | 650 mg/kg |
| CC(C)Cc1cccc2c(CC(=O)O)cccc12 | 600 mg/kg |
| N#C[C@H](O[C@@H]1O[C@H](CO)[C@@H](O)[C@H](O)[C@H]1O)c1ccccc1 | 560 mg/kg |

| Compound | LD50 |
| --- | --- |
| NCC1CCC(CN)CC1 (configuration not stated) | 530 mg/kg |
| COP(=S)(OC)SCc1ccc(SP(=S)(OC)OC)cc1 | 265 mg/kg |
| CCCCCCCCCCCC[N+](C)(C)CC(=O)[O-] | 71 mg/kg |
| CN1C(=O)C2C=CC1c1ccccc12 (configuration not stated) | 806 mg/kg |
| CCCC=C(CC)C(=O)O | 5660 mg/kg |
| Cn1c2c(c(=O)n1-c1ccccc1)CCCC2 | 1500 mg/kg |
| CN(C/C=C/C#CC(C)(C)C)Cc1cccc2ccccc12 | 4000 mg/kg |
| Nc1cc(-c2ccncc2)c[nH]c1=O | 102 mg/kg |
| COCCOC(=O)C1=C(C)NC(C)=C(C(=O)OC(C)C)C1c1cccc([N+](=O)[O-])c1 (configuration not stated) | 2740 mg/kg |
| O=C1C(=NNc2cc([N+](=O)[O-])ccc2O)C(S(=O)(=O)O)=Cc2cc(S(=O)(=O)O)cc(Nc3nc(Cl)nc(Cl)n3)c21 | 9120 mg/kg |
| CC(C)C(=O)C(C)C | 3540 mg/kg |
| C=C(C)C(=O)OCCOC(=O)C(=C)C | 3300 mg/kg |
| Cc1cc(Cl)ccc1OCC(=O)OCCCCCC(C)C | 700 mg/kg |
| C/C=C\c1ccc(OCc2ccccc2)c(OC)c1 | 4900 mg/kg |
| CCOc1cc(OP(=S)(OC)OC)nc(CC)n1 | 1800 mg/kg |
| CS(=O)(=O)c1ccc(CN(CCO)C(=O)C(Cl)Cl)cc1 | 12500 mg/kg |
| CC(C)(c1ccccc1)c1ccc(O)cc1 | 1770 mg/kg |
| Nc1ccc(CCNCC(O)c2ccccc2)cc1 (configuration not stated) | 200 mg/kg |
| C(=NC1CCCCC1)c1ccccc1 | 3080 mg/kg |
| N#Cc1ccc2nc(C(F)(F)F)[nH]c2c1 | 4.41 mg/kg |
| CCCCCCCCOC(=O)C1=C(C)NC(C)=C(C(=O)NC2CC2)C1c1ccccc1[N+](=O)[O-] (configuration not stated) | 50 mg/kg |
| CSc1nc(N=[N+]=[N-])nc(NC(C)C)n1 | 3600 mg/kg |

| Compound | LD50 |
| --- | --- |
| NNc1ccccc1 | 188 mg/kg |
| CCCN(C)C | 500 mg/kg |
| CCOC(C1=NCC(C)(C)CN1)c1ccccc1 (configuration not stated) | 875 mg/kg |
| CCCCCOc1ccc(Br)cc1COCCN1CCOCC1 | 1200 mg/kg |
| CN(C)CCNc1ncnc2ccccc12 | 670 mg/kg |
| Cc1ccc2c(c1)CC(=O)c1cc(C(C)C(=O)OCCOCCO)ccc1O2 (configuration not stated) | 219 mg/kg |
| COc1cc(N)c2c(c1N)C(=O)c1ccccc1C2=O | 891 mg/kg |
| CN(C)CCC=C(c1ccccc1)c1ccc(C(F)(F)F)cc1 | 1000 mg/kg |
| O=C1C(Cc2ccccc2)C(=O)N(c2ccccc2)N1c1ccccc1 | 297 mg/kg |
| CNC(=O)Oc1ccc(SC)c(C)c1 | 50 mg/kg |
| CC(O)COC(C)(C)C (configuration not stated) | 3770 mg/kg |
| Cc1cc(C2(c3ccc(O)c(C)c3)C(=O)Nc3ccccc32)ccc1O | 520 mg/kg |
| C=CC(=O)OCCN=C=O | 200 mg/kg |
| CCN1CCOCC1 | 1780 mg/kg |
| O=C(C1CCCCC1)N1CC(=O)N2CCc3ccccc3C2C1 (configuration not stated) | 2840 mg/kg |
| CCCCOC(=O)/C=C\C(=O)OCCCC | 3700 mg/kg |
| CC(C)c1ccccc1N | 1180 mg/kg |
| CCCOc1cccc(C)c1N(COCC)C(=O)CCl | 2600 mg/kg |
| C=Cc1cccc(Cl)c1 | 5200 mg/kg |
